Measurements reported in a melting point compilation (Tetko et al.; mined from patent text by program, amines drawn as free bases though some values may be those of a salt).

In the case of `CCCN1C(=O)N2C[C@@H](Cc3ccccc3)N=C2c2c1nc(SC)n2COC`, the melting point is reported as 110 to 112 °C.
With `CC(C)(C)OC(=O)NCCCCC(=O)NCCC(=O)O` the melting point was 70 °C.
For `CCOC(=O)CSc1nnc(S)s1`, the melting point was 67 to 68 °C.
In the case of `CC(=O)SCC(Cc1ccccc1)C(=O)Nc1ccc(O)c(C(=O)O)c1` (centres undefined), the melting point is reported as 185 to 188 °C.
`COC(=O)C(Br)c1ccc(OCCOc2ccc(Cl)cc2)cc1` (centres undefined) gave a melting point of 76 to 80 °C.
In the case of `Nc1scc2c1C(=O)c1c(Cl)cccc1-2`, the melting point is reported as 183 to 185 °C.
For `N=C(Nc1ccccc1C(F)(F)F)NC12CC3CC(CC(C3)C1)C2`, the melting point was 259 to 260 °C.
For `C[C@@H]1OCCN(c2cc(N3CCOCC3)nc(-n3c(N)nc4ccccc43)n2)[C@@H]1C` (relative stereo), the melting point was 118 to 123 °C.
Work on `Cn1c(S)nnc1COCC(=O)O` yielded a melting point of 155 to 156 °C.
Compound `Cn1c(Cl)c(C#N)c2ccccc21` has a melting point of 112 to 114 °C.
`CCCCOc1ccc2sc(-c3ccccn3)nc(=O)c2c1` gave a melting point of 161 to 162 °C.
`O=C1NCC(c2ccccc2)N1CCCS` (centres undefined) gave a melting point of 97 to 99 °C.
For `CCOCCCOc1ccc(-c2ccc3c(c2)C=C(C(=O)OC)CCN3)cc1`, the melting point was 99 to 102 °C.
In the case of `O=C(NC[C@@H]1CN2C(=O)C[C@H]2O1)c1ccccc1` (racemic), the melting point is reported as 115 to 116 °C.
For `NC(=O)CCCCn1ccc([N+](=O)[O-])n1`, the melting point was 129 to 131 °C.
In the case of `O=C(O)C1CN(S(=O)(=O)c2ccc3cc(Cl)ccc3c2)CCN1C(=O)C1CCN(c2ccncc2)CC1` (centres undefined), the melting point is reported as 215 to 220 °C.
For `O=C1CC([N+](=O)[O-])([N+](=O)[O-])CO1`, the melting point was 100 to 102 °C.
`CC(=O)ONC(=N)c1ccc(-c2ccc(-c3ccc(C(=N)NOC(C)=O)o3)o2)cc1` showed a melting point of 212 to 213 °C.
`Cc1oc2c(OC(C)C(N)=NO)cccc2c1C` (centres undefined) gave a melting point of 147 to 148 °C.
`O=C1NCC(c2cccc(C(F)(F)F)c2)C1c1cn2c3c(cccc13)CCC2` (centres undefined) showed a melting point of 82 to 85 °C.
`ClC1=Nc2ccccc2Oc2ccccc21` gave a melting point of 53 to 55 °C.
With `COC(=O)[C@@H]1C[C@H]1C(=O)O` (relative stereo) the melting point was 46 to 47 °C.
For `Cc1c(F)c(F)c(F)c2c1c(=O)c(C(=O)O)cn2-c1ccc(F)cc1F`, the melting point was 221 to 222 °C.
With `Cn1cc(O)c(=O)c2ccc(Cl)cc21` the melting point was 225 to 228 °C.
Compound `O=C(CNc1ccc2[nH]c(=O)[nH]c2c1)N1CCC(Cc2ccccc2)CC1` has a melting point of 237 to 238 °C.
`N#CCCCc1ccc2ccccc2c1O` showed a melting point of 76 to 78 °C.
Compound `NC(=O)c1cc(-c2ccccc2)c(=O)n2c1-c1ccccc1C2` has a melting point of 294 to 296 °C.
Compound `CCOC(=O)C1=NN(c2ccc([N+](=O)[O-])cc2)C2(N3CCCC3)CCCC12` (centres undefined) has a melting point of 118 °C.
Work on `CN1Cc2ccccc2[C@H]2c3cccc4c3[C@H](CN4)C[C@@H]21` (relative stereo) yielded a melting point of 184 to 185 °C.
`CC(C)(C)c1ccc(S(=O)(=O)N2c3ccccc3C[C@H]2C(=O)NCc2ccc(Cl)cc2)cc1` showed a melting point of 69 °C.
`CCOC(=O)c1c[nH]c(-c2ccccc2OCc2ccccc2)n1` showed a melting point of 203 to 205 °C.
`Cc1cc2c(c(S(N)(=O)=O)n1)C(=O)OC2` showed a melting point of 211 to 213 °C.
Compound `CCOC(=O)c1nnc(Cc2c(F)cccc2F)n1C` has a melting point of 127 to 128 °C.
`CN(C)S(=O)(=O)c1ccccc1Cl` gave a melting point of 49 to 51 °C.
With `COC(=O)c1ccc(OCC(O)COc2ccc(Cl)cc2)cc1` (centres undefined) the melting point was 88 to 90 °C.
With `CC(C)CC1N=C(c2ccccc2)OC1=O` (centres undefined) the melting point was 53 to 55 °C.
Work on `CCOc1ccc(-c2cc(C(F)(F)F)n3ncc(-c4ccnc(C)c4)c3n2)cc1C(F)(F)F` yielded a melting point of 250 °C.
With `CNCCCn1c(-c2ccc(OC)cc2)csc1=Nc1ccccc1` the melting point was 143 to 146 °C.
With `COc1cc(C(=O)O)cc2ccc(-c3ccc4c(c3)C(C)(C)CCC4(C)C)cc12` the melting point was 242 °C.
Work on `N#Cc1cc(F)c(F)cc1N` yielded a melting point of 114 °C.
Work on `N=C(N)NOCc1ccccc1` yielded a melting point of 104 to 105 °C.
Work on `CCOC(=O)c1cnc(-c2ccccc2OC(C)CC)[nH]c1=O` (centres undefined) yielded a melting point of 134 to 136 °C.
In the case of `CC1(C)OCC2Cc3cc4c(cc3C(c3ccc([N+](=O)[O-])cc3)=NN21)OCO4` (centres undefined), the melting point is reported as 171 to 173 °C.
`CCOC(=O)c1cc(-c2ccc(Cl)cc2)n(-c2ccc(OC)cc2)n1` showed a melting point of 107 to 108 °C.
In the case of `COc1ccc(C2(C#Cc3cccc(-c4noc(C)n4)c3)CCCC(=O)C2)cc1OC1CCCC1` (centres undefined), the melting point is reported as 116 to 118 °C.
In the case of `O=C(CO)Nc1nc(CN2CCC(c3c[nH]c4ccccc34)CC2)cs1`, the melting point is reported as 185 to 188 °C.
With `CC(C)c1cc(C(=O)Nc2ccc(C(=O)O)nc2)sc1C(C)C` the melting point was 216 to 217 °C.
For `CCOC(=O)CNC(=O)CCl`, the melting point was 60 to 62 °C.
Work on `COc1ccc(Cc2cc(C(C)(C)C)cc(C(C)(C)C)c2O)cc1` yielded a melting point of 84 to 85 °C.
